Test results published in the supplement of paper PMC10307832.

How the values were obtained:
Test in all cases: relative viability (nuclei count vs DMSO), 5 days (fraction); higher = more cells survive
[1] = compound: CC1=CC(=C(N1C2=CC=C(C=C2)Cl)C)C(=O)CN3CCCCC3 [IU1-47] + CC(C)C[C@H](NC(=O)[C@H](Cc1ccccc1)NC(=O)c1cnccn1)B(O)O [Bortezomib] (partner 0.002 µM)
Outline: (§1)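 After 5 days of treatment, lung cancer cells in 1536-well plates were fixed and stained in a single step (final 0.05% Triton X-100, 1% formaldehyde, 1 ug/ml Hoechst) and their nuclei counted on 4× images. Treatment had been applied by pin tool the day after seeding as one drug alone or as a fixed anchor-drug dose with five library-drug doses (not always all listed) in √10 steps. Relative viability is the nuclei count of treated wells divided by that of vehicle wells, and values are medians of duplicate plates.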

[2] = compound: CC1=CC(=C(N1C2=CC=C(C=C2)Cl)C)C(=O)CN3CCCCC3 [IU1-47] + O=C(CCCCCCC(=O)Nc1ccccc1)NO [Vorinostat] (partner 1 µM)
Outline: as §1

[3] = compound: Cc1nc(C(=O)NCC(=O)O)c(O)c2ccc(Oc3ccccc3)cc12 [FG-4592] + N=C(N)NC(=N)NCCc1ccccc1 [Phenformin] (partner 250 µM)
Outline: as §1

[4] = compound: Cc1nc(C(=O)NCC(=O)O)c(O)c2ccc(Oc3ccccc3)cc12 [FG-4592] + NC(=O)Nc1cc(-c2cccc(F)c2)sc1C(=O)N[C@H]1CCCNC1 [AZD7762] (partner 0.2 µM)
Outline: as §1

Cell Line	relative viability ([1]; first compound 0.08 µM)	relative viability ([1]; first compound 0.253 µM)	relative viability ([1]; first compound 0.8 µM)	relative viability ([1]; first compound 2.53 µM)	relative viability ([1]; first compound 8 µM)	relative viability ([2]; first compound 0.08 µM)	relative viability ([2]; first compound 0.253 µM)	relative viability ([2]; first compound 0.8 µM)	relative viability ([2]; first compound 2.53 µM)	relative viability ([2]; first compound 8 µM)	relative viability ([3]; first compound 0.08 µM)	relative viability ([3]; first compound 0.253 µM)	relative viability ([3]; first compound 0.8 µM)	relative viability ([3]; first compound 2.53 µM)	relative viability ([3]; first compound 8 µM)	relative viability ([4]; first compound 0.08 µM)	relative viability ([4]; first compound 0.8 µM)	relative viability ([4]; first compound 2.53 µM)	relative viability ([4]; first compound 8 µM)	relative viability ([4]; first compound 0.253 µM)
HCC-78	0.712	0.562	0.49	0.381	0.596	0.557	0.432	0.463	0.397	0.438	0.683	0.621	0.809	0.723	0.716	0.558	0.534	0.625	0.662	–
HCC-15	1.11	1.05	1.05	0.928	0.856	0.885	0.894	0.946	0.766	0.731	0.524	0.424	0.533	0.462	0.503	1.29	1.14	1.18	1.25	1.25
EKVX	1.18	1.11	1.18	1.13	0.985	0.951	0.632	0.846	0.573	0.631	0.205	0.237	0.224	0.221	0.262	0.732	0.758	0.665	0.747	0.628
NCI-H2087	1.12	0.978	0.93	0.914	0.616	0.902	0.716	0.83	0.723	0.489	0.519	0.416	0.454	0.493	0.529	1.34	1.32	–	1.38	1.24
NCI-H1437	0.599	0.496	0.495	0.486	0.469	0.807	0.801	0.81	0.735	0.801	0.297	0.355	0.343	0.287	0.31	1.19	1.17	0.995	1.08	1.08
ABC-1	0.327	0.281	0.256	–	0.312	1.32	1.08	0.987	–	1.06	0.232	0.201	0.211	0.258	0.254	0.665	0.794	1.09	0.693	0.762
NCI-H838	0.869	0.952	0.904	0.624	0.564	0.768	0.746	0.834	0.689	0.64	0.545	0.581	0.5	0.505	0.583	0.899	0.976	0.981	0.916	0.888
A-427	1.01	0.968	1.06	–	0.841	0.894	0.847	0.841	0.883	0.836	0.27	0.313	0.341	0.335	0.414	0.757	0.665	0.773	0.717	0.777
